US7166303B2, “Anesthetic formulations” (Maelor Pharmaceuticals Limited, priority 2000, dated 2007)
≈ marks a conversion by molar mass, not a printed value.

Tests used:
[1] = 84% water/16% propylene glycol, ambient temperature
physchem = conditions: water, thermodynamic from solid
Protocol: Analyses were performed using the Perkin Elmer Lambda 5 UV/Vis Spectrophotometer.
Two sets of standards were prepared by serial dilution of: • 1. 10% poloxamer P407/1% Propofol solution in water. • 2. 1% Propofol solution in ethanol (EtOH).
Dilutions were performed with water and EtOH respectively. The standards were further diluted one hundred fold prior to measurement of their UV absorption spectra recorded.

With `CC(C)c1cccc(C(C)C)c1O` [Propofol, 2,6-bis(1-methylethyl)phenol] the “increase of solubility of Propofol over water alone” value [1] was “approximately 50%” and the solubility thermodynamic (physchem) was ~1000 µM (≈ 178 µg/mL).
